This passage reports EC50, IC50 and outcome results from PubChem BioAssay AID179 (DTP/NCI, 2004).

The structures appear in SMILES notation. “And” between values parts separate entries of the source, which are not always exact repeats. Equal entries are not always repeated. The source made the active and inactive calls.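 How the source made its calls: active means compounds giving half or more protection of infected cells from virus-caused growth loss, again on retest; inactive means the rest.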

The test relates to CEM cells HIV-1 protection, formazan growth assay. The test is described as follows: NCI AIDS Antiviral Assay. Particulars: for IC50: measured here: growth of uninfected CEM cells. An outline of the steps: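 Protection of CEM cells against HIV-1 was scored from cell growth (soluble formazan) across five concentrations, with parallel uninfected cells. Lack of protection may reflect toxicity.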

For the molecule `O=C(CCCn1ccnc1[N+](=O)[O-])NCCn1cnc([N+](=O)[O-])n1`, the EC50 (as a rule, the concentration that produces a half-maximal response) was greater than 200 µM and the half-inhibitory concentration (IC50) (usually the concentration at which inhibition is half-maximal) was greater than 200 µM.

For `CNCCC=C1c2ccccc2CCc2ccccc21`, the EC50 was greater than 200 µM; the IC50 was 28.8 µM and 33.1 µM.

On to `COc1cc2c3c(c1)nnn3C(=O)C(C)S2` (stereo unspecified), for which the result was inactive. With `Nc1ncnc2c1ncn2C1OC2CSCCC2(O)C1O` (stereo unspecified), the EC50 was greater than 200 µM and the IC50 is greater than 200 µM. With `Cc1cccc2c(N)c3cccc(C(=O)NCC[N+](C)(C)Cc4ccc([N+](=O)[O-])s4)c3nc12`, the EC50 is greater than 2 µM and the IC50 amounted to 0.251 µM. Regarding `Cc1nc(N)c2cnn(C)c2n1`, the EC50 is greater than 1510 µM and the IC50 is 708 µM. Regarding `O=C1CCC2CCc3cccc4oc1c2c34` (stereo unspecified), the result was inactive.

Consider `CC(SC(=S)N1CCOCC1)c1cc2oc(=O)n(C)c2cc1Cl` (stereo unspecified), for which the EC50 is greater than 10 µM and the IC50 was greater than 10 µM. Regarding `CCCCCCCCCCCCN1C=C(C(N)=O)C(S(=O)(=O)O)c2ccccc21` (stereo unspecified), the EC50 is 6.61 µM and the IC50 was 25.1 µM. As for `CCO/N=C(/N)c1ncn(Cc2ccccc2)c1NCC(OCC)OCC`, the EC50 is greater than 661 µM and the IC50 was 339 µM. As to `Cc1nc2ccccc2c(=O)n1N1C2CCCC21` (stereo unspecified), the EC50 was greater than 200 µM and the IC50 is greater than 200 µM. As for `O=c1[nH]c2cc([N+](=O)[O-])ccc2nc1/C(=N\Nc1ccccc1)C(O)c1ccc2c(c1)OCO2` (stereo unspecified), the EC50 was greater than 447 µM and the IC50 was found to be 214 µM. Regarding `COC(=O)C(C#CCCCCC#CC(NC(=O)OCc1ccccc1)(C(=O)OC)C(F)(F)F)(NC(=O)OCc1ccccc1)C(F)(F)F` (stereo unspecified), the EC50 is greater than 200 µM and the IC50 came out at 138 µM.

With `CCCC/C=C/C/C=C/CCCCCCCCC(=O)OCC1CCCN2CCCCC12` (stereo unspecified), the EC50 is greater than 200 µM and the IC50 was found to be 7.94 µM.

Take `O=C(Cn1c2ccc(Br)cc2c2nc3ccccc3nc21)N1CCOCC1`: the EC50 is greater than 100 µM and the IC50 is greater than 100 µM. On to `CC(CN(C)C)C(=O)c1ccccc1` (stereo unspecified), for which the EC50 is greater than 912 µM and the IC50 was found to be 55 µM.

Take `O=C(O)/C(=C\c1ccc(F)cc1)c1ccccc1`: the EC50 is greater than 537 µM and the IC50 was 309 µM.

Consider `NCCC1([N+](=O)[O-])CCNCC1`, for which the EC50 was greater than 200 µM and the IC50 was greater than 200 µM. On to `COc1cc2c(cc1OCCCCCN1C(=O)c3cccc4cccc(c34)C1=O)N=C[C@@H]1CCCN1C2=O`, for which the EC50 was greater than 2 µM and the IC50 worked out at 1.1 µM. Regarding `c1ccc2c(-c3cccc4ccccc34)cccc2c1`, the EC50 was greater than 200 µM and the IC50 was greater than 200 µM. In the case of `CC(C)N(C)C(=O)C12C3C4C1C1C2C3C41C#N` (stereo unspecified), the result was inactive. Consider `OCC1CCCCCCCCCCC12SCCCS2` (stereo unspecified), for which the EC50 was greater than 200 µM and the IC50 turned out to be 120 µM.

On to `CCn1c(=O)c2ncnnc2n(CC)c1=O`, for which the EC50 was greater than 200 µM and the half-inhibitory concentration (IC50) was greater than 200 µM. Regarding `Cc1cc2c(C)cc3c(c2oc1=O)[C@@H](OC(=O)C12CCC(C)(C(=O)O1)C2(C)C)[C@@H](OC(=O)C12CCC(C)(C(=O)O1)C2(C)C)C(C)(C)O3` (stereo partly specified), the EC50 was 0.692 µM and the IC50 was 6.92 µM. With `O=C(O)C1CCC(c2ccc(Cl)cc2)N1` (stereo unspecified), the EC50 is greater than 200 µM and the IC50 was greater than 200 µM. On to `CC(C)(C)c1cc(CCC(=O)Nc2ccc(Cl)cc2)nc(NC#N)n1`, for which the EC50 was greater than 692 µM and the IC50 was greater than 692 µM.

With `C[N+](C)(C)CC(=O)N/N=C(/Cc1nc2ccc(Cl)cc2[nH]c1=O)C1=NS(=O)(=O)c2cc(S(N)(=O)=O)c(Cl)cc2N1`, the EC50 is greater than 269 µM and the IC50 was greater than 269 µM. `CC(C)(C)OC(=O)N1CCC(C(=O)O)CC1`: the EC50 was greater than 200 µM and the concentration for half-maximal inhibition (IC50) was greater than 200 µM. Regarding `COc1ccc(NC(C)=O)c(Cl)c1`, the EC50 is greater than 1260 µM and the IC50 was greater than 1260 µM. Take `CCOC(=O)C1C(=O)CC(O)(c2ccccc2)C(C(=O)OCC)C1c1ccc(N(C)C)cc1` (stereo unspecified): the EC50 was greater than 200 µM and the 50% inhibitory concentration (IC50) turned out to be 4.07 µM. On the same counts, the results for `CC(C)(C)OC(=O)N1Cc2cc(O)ccc2C[C@H]1C(=O)O` are greater than 200 µM and greater than 200 µM. Consider `CCCc1cc(=O)oc2c3c(c4c(c12)OC(C)(C)CC4)O[C@@H](C)[C@H](C)[C@H]3O`, for which the EC50 is greater than 200 µM, the result was inactive and the IC50 was found to be 33.1 µM. As to `Cc1ccc(S(=O)(=O)C(C#N)c2nc3ccccc3nc2-n2ccnc2)cc1` (stereo unspecified), the EC50 is greater than 200 µM and the IC50 was 155 µM.

Consider `CCOC(=O)/C=C/c1ccc(OC)cc1`, for which the EC50 is greater than 34.7 µM and the IC50 is greater than 34.7 µM. Turning to `COc1c(OC(C)=O)c(OC(C)=O)cc2c1-c1ccc(OC)c(=O)cc1C(NC(C)=O)CC2` (stereo unspecified), the EC50 was greater than 0.2 µM and the IC50 came to 0.0115 µM. `CCOC(=O)C12CC1(C(=O)OCC)C1CCC2C1` (stereo unspecified): the EC50 is greater than 200 µM and the IC50 was greater than 200 µM. `Cc1ccc(-c2nc3ccccc3c(=O)n2NC2OC(CO)C(O)C(O)C2O)cc1` (stereo unspecified): the result was inactive. With `N#CC1=C(O)NC(O)=C(C#N)C1c1c(Cl)cccc1Cl`, the EC50 was greater than 427 µM and the IC50 worked out at 27.5 µM. For `O=c1oc2c(-c3ccccc3)n[nH]c(=O)c2c2c1CCCC2` the same measures were greater than 170 µM and greater than 170 µM. For `O=c1[nH]c(=S)[nH]c2nc[nH]c12`, the EC50 was greater than 200 µM and the IC50 was greater than 200 µM. For `COC(=O)Cc1nc2ccccc2o1`, the EC50 was greater than 1290 µM and the IC50 was found to be 33.9 µM. For the molecule `Cc1ccc(S(=O)(=O)c2c(O)c3ccccc3n(C)c2=O)cc1`, the EC50 was greater than 200 µM and the IC50 is greater than 200 µM.

`COc1cc(OC)c2c(O)c(S(=O)(=O)c3ccc(C)cc3)c(=O)oc2c1`: the EC50 was greater than 200 µM and the IC50 is greater than 200 µM.

On to `CC1C(c2ccccc2)=CCON1c1ccccc1` (stereo unspecified), for which the EC50 is greater than 75.9 µM and the IC50 is greater than 75.9 µM. In the case of `CSc1nc(=O)c2nc(-c3cccs3)c(-c3cccs3)nc2n1C`, the EC50 was greater than 100 µM and the IC50 is greater than 100 µM. As to `Cc1ccc(S(=O)(=O)N/N=C(\C(=O)Nc2cccc([N+](=O)[O-])c2)c2nc3ccc([N+](=O)[O-])cc3[nH]c2=O)cc1`, the EC50 is greater than 123 µM and the IC50 was 115 µM. Turning to `CC(=O)c1c(O)c2ccc(Cl)cc2[nH]c1=O`, the EC50 was greater than 200 µM and the IC50 amounted to 33.9 µM. On the same counts, the results for `CC(=NNC(=S)Nc1cccc(C)c1)c1cccc(C(C)=NNC(=S)Nc2cccc(C)c2)n1` are greater than 200 µM and 27.5 µM. On the same counts, the results for `CCN(CC)CCC(=O)c1ccc(C)cc1` are greater than 6170 µM and 331 µM. For `O=C(Nc1ccc(S(=O)(=O)c2ccc(NC(=O)c3ccc(N=Nc4cc(S(=O)(=O)O)c5cccnc5c4O)cc3S(=O)(=O)O)cc2)cc1)c1ccc(N=Nc2cc(S(=O)(=O)O)c3cccnc3c2O)cc1S(=O)(=O)O` the same measures were 3.8 µM and 93.3 µM. Consider `Brc1ccc(-c2nc3sc(-c4ccc5c(c4)OCO5)nn3c2Br)cc1`, for which the EC50 was greater than 200 µM and the IC50 is greater than 200 µM. Take `CC1(C)OC2OC(C(O)COC(=O)c3ccccc3)C(Cl)C2O1` (stereo unspecified): the EC50 was greater than 219 µM and the IC50 stood at 151 µM. As to `O=C1OCCOCCOCCOCCOC(=O)c2cccc1c2`, the EC50 was greater than 155 µM and the IC50 was greater than 155 µM. `COc1ccccc1NC(=S)Nc1cc(C)cc(C)n1`: the EC50 is greater than 200 µM and the IC50 is greater than 200 µM. Turning to `Cc1nc(Nc2ccc(Cl)cc2)sc1C(=O)NNc1ccc([N+](=O)[O-])cc1[N+](=O)[O-]`, the EC50 was greater than 39.8 µM and the IC50 was determined as 25.1 µM. In the case of `C=CC(C)(C)c1[nH]cnc1/C=C1\NC(=O)[C@H](C(C)C)NC1=O`, the EC50 is greater than 200 µM and the IC50 came to 2.4 µM. With `O=C(O)c1c(O)ccc(N=Nc2ccc(/C=C/c3ccc(N=Nc4ccc(O)c(C(=O)O)c4O)cc3S(=O)(=O)O)c(S(=O)(=O)O)c2)c1O`, the EC50 is greater than 14.5 µM and the IC50 is greater than 14.5 µM. `CC(C)(C)C1CCC2c3c([nH]c4ccccc34)C3C(=O)N(c4cc(Cl)ccc4Cl)C(=O)C3C2C1` (stereo unspecified): the EC50 is greater than 200 µM and the IC50 worked out at 19.1 µM.

For the molecule `Cc1cc(=O)[nH]c(NN2C(Cl)C(=O)C2c2ccc(Cl)cc2)n1` (stereo unspecified), the EC50 is greater than 55 µM and the half-maximal inhibitory concentration (IC50) came out at 4.68 µM. On the same counts, the results for `COC(=O)/C=C1\SC(OC)(N(C)c2ccccc2)N(C)C1=O` (stereo unspecified) are greater than 155 µM and 145 µM.

For the molecule `COc1cc(OC)c(-n2[nH]c(=O)n(C)c2=O)c(OC)c1`, the EC50 was greater than 200 µM and the IC50 was greater than 200 µM. On to `CC(=O)Nc1ccc(C2SCc3nc4ccccc4n32)cc1` (stereo unspecified), for which the EC50 is greater than 200 µM and the IC50 was greater than 200 µM. Turning to `CCOC(=O)c1ccc(CS(=O)c2ccc([N+](=O)[O-])cc2)c([N+](=O)[O-])c1` (stereo unspecified), the EC50 is greater than 69.2 µM and the concentration for half-maximal inhibition (IC50) worked out at 21.4 µM. In the case of `FC(F)(F)c1nc2cc(SSc3cc4nc(C(F)(F)F)[nH]c4cc3Cl)c(Cl)cc2[nH]1`, the EC50 is greater than 200 µM and the IC50 is 7.41 µM. On the same counts, the results for `CCCCCN(CCCCC)CCC(=O)c1ccc2cc(Br)c3ccccc3c2c1` are greater than 200 µM and 12.6 µM. For `C[C@@]12c3ccc4c(c3C(=O)c3occ(c31)[C@@H](O)C[C@H]2O)CCC4=O` the same measures were greater than 200 µM and 17.4 µM. Consider `COc1ccc(C(OCC2OC(n3cnc4c(=O)n(Cc5ccccc5[N+](=O)[O-])nnc43)C(O)C2O)(c2ccccc2)c2ccc(OC)cc2)cc1` (stereo unspecified), for which the result was inactive. For `Cc1nc(-n2nc(-c3ccccc3)cc2-c2ccccc2)sc1C(=O)/C=C/c1ccc(Cl)cc1`, the EC50 is greater than 14.8 µM and the 50% inhibitory concentration (IC50) was greater than 14.8 µM.

Turning to `CC(C)[N+](C)(C)CC(O)COc1cccc2ccccc12` (stereo unspecified), the EC50 is greater than 200 µM and the IC50 was greater than 200 µM.

`O=C1C(O)=C(c2ccccc2)C(=O)C(O)=C1c1ccccc1`: the EC50 was greater than 85.1 µM and the IC50 amounted to 43.7 µM.
